Data reported in the NIST ThermoML archive (doi:10.1021/je100765j).

Assay: refractive index (Na D-line) (dimensionless); xn = mol fraction of the nth substance listed
Conditions: 101 kPa, Liquid, Standard Abbe refractometry

CCC(C)Cl (stereo not drawn) [2-chlorobutane] + CC(C)OC(C)C
refractive index
Conditions	283.15 K	288.15 K	293.15 K	298.15 K	303.15 K	308.15 K	313.15 K
x1 = 0.0519	1.37477	1.37203	1.36931	1.36644	1.36361	1.36077	1.35788
x1 = 0.0988	1.37587	1.37314	1.37041	1.36756	1.36473	1.36189	1.359
x1 = 0.2006	1.37839	1.37566	1.37294	1.37009	1.36727	1.36443	1.36155
x1 = 0.3211	1.38155	1.37883	1.3761	1.37326	1.37044	1.3676	1.36473
x1 = 0.4201	1.38427	1.38154	1.37882	1.37599	1.37317	1.37033	1.36746
x1 = 0.532	1.38745	1.38472	1.38199	1.37917	1.37636	1.37353	1.37067
x1 = 0.6244	1.39016	1.38743	1.3847	1.38189	1.37908	1.37626	1.3734
x1 = 0.726	1.39324	1.39051	1.38778	1.38498	1.38218	1.37936	1.37651
x1 = 0.8163	1.39608	1.39336	1.39063	1.38784	1.38505	1.38224	1.3794
x1 = 0.8817	1.39819	1.39548	1.39275	1.38997	1.38719	1.38438	1.38154
x1 = 0.9634	1.40097	1.39825	1.39552	1.39276	1.38997	1.38716	1.38434

CC(C)CCl [1-chloro-2-methylpropane] + CC(C)OC(C)C
refractive index
Conditions	283.15 K	288.15 K	293.15 K	298.15 K	303.15 K	308.15 K	313.15 K
x1 = 0.0549	1.37495	1.37221	1.36949	1.36663	1.36379	1.36095	1.35806
x1 = 0.091	1.3759	1.37316	1.37043	1.36757	1.36474	1.36188	1.359
x1 = 0.1977	1.37869	1.37595	1.37322	1.37038	1.36754	1.36469	1.36182
x1 = 0.2934	1.38128	1.37855	1.37581	1.37298	1.37015	1.3673	1.36444
x1 = 0.3911	1.38404	1.38131	1.37857	1.37575	1.37292	1.37008	1.36723
x1 = 0.5137	1.38762	1.38488	1.38213	1.37932	1.37649	1.37365	1.37081
x1 = 0.6034	1.39034	1.3876	1.38484	1.38205	1.37922	1.37638	1.37354
x1 = 0.6769	1.39263	1.38989	1.38713	1.38435	1.38152	1.37868	1.37585
x1 = 0.8059	1.3968	1.39405	1.39129	1.38852	1.38568	1.38285	1.38003
x1 = 0.9111	1.40038	1.39764	1.39487	1.39212	1.38928	1.38645	1.38364
x1 = 0.9646	1.40226	1.39951	1.39674	1.394	1.39116	1.38833	1.38553

CC(C)(C)Cl [2-chloro-2-methylpropane] + CC(C)OC(C)C
refractive index
Conditions	283.15 K	288.15 K	293.15 K	298.15 K	303.15 K	308.15 K	313.15 K
x1 = 0.049	1.37426	1.37152	1.36878	1.36591	1.36307	1.36021	1.35731
x1 = 0.0996	1.37498	1.37223	1.36948	1.36661	1.36376	1.36089	1.35799
x1 = 0.1991	1.37645	1.37368	1.37091	1.36803	1.36516	1.36228	1.35936
x1 = 0.3212	1.37834	1.37555	1.37275	1.36986	1.36697	1.36407	1.36114
x1 = 0.4189	1.37994	1.37712	1.37431	1.3714	1.3685	1.36559	1.36263
x1 = 0.5148	1.38157	1.37874	1.3759	1.37299	1.37006	1.36713	1.36416
x1 = 0.6213	1.38348	1.38063	1.37775	1.37483	1.37189	1.36894	1.36595
x1 = 0.7152	1.38524	1.38237	1.37947	1.37654	1.37357	1.37061	1.3676
x1 = 0.8138	1.38719	1.3843	1.38137	1.37843	1.37543	1.37245	1.36942
x1 = 0.9079	1.38915	1.38623	1.38327	1.38031	1.3773	1.3743	1.37125
x1 = 0.9552	1.39016	1.38723	1.38426	1.3813	1.37827	1.37526	1.3722

CCCCCl [1-chlorobutane] + CC(C)OC(C)C
refractive index
Conditions	283.15 K	288.15 K	293.15 K	298.15 K	303.15 K	308.15 K	313.15 K
x1 = 0.0466	1.37486	1.37213	1.36941	1.36656	1.36373	1.36088	1.35801
x1 = 0.0991	1.37637	1.37364	1.37092	1.36807	1.36525	1.3624	1.35953
x1 = 0.1918	1.37915	1.37643	1.37372	1.3709	1.36808	1.36524	1.3624
x1 = 0.32	1.38331	1.38059	1.37788	1.37509	1.37227	1.36944	1.36662
x1 = 0.4199	1.38643	1.38374	1.38104	1.37827	1.37544	1.37262	1.36983
x1 = 0.516	1.38968	1.38698	1.38428	1.38153	1.37872	1.37592	1.37315
x1 = 0.623	1.39338	1.39068	1.38799	1.38527	1.38246	1.37967	1.37693
x1 = 0.7154	1.39669	1.39399	1.3913	1.38859	1.3858	1.38301	1.38028
x1 = 0.8157	1.40037	1.39768	1.39499	1.39231	1.38954	1.38677	1.38407
x1 = 0.9098	1.40395	1.40125	1.39856	1.39594	1.39315	1.3904	1.38773
x1 = 0.9559	1.40572	1.40303	1.40034	1.3977	1.39493	1.39216	1.38952
